pIC50: −log10 of the molar value. Where two headings read alike, the source gives them in different places.
Key:
c-kit = target: T1, c-kit (Homo sapiens, UniProt P10721); test: Inhibitory activity against c-kit autophosphorylation (MO7e cells, h-SCF); type: cell-based; conditions: for pIC50: MO7e cells, read-out: c-kit IC50
T1 construct: MO7e (human megakaryocytic leukemia cell line) which had been arrested for 20 hr; endogenous in cells; host or cells: MO7e human megakaryocytic leukemia cell line
Summary of the method: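 MO7e cells, arrested for 20 hr, were pretreated with test compound in DMSO for 1 hr and then stimulated with 50 ng/ml h-SCF for 5 min before lysis. Lysates were captured on immobilized anti-phosphotyrosine PY-20, probed with anti-c-kit antibody and HRP anti-rabbit IgG, and read colorimetrically at 450 nm.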

PDGF-Ra = target: T2, PDGF-Ra (Homo sapiens, UniProt P16234); test: Inhibitory activity against PDGF-Ra phosphorylation by PDGF-AA stimulation using G292; type: cell-based; conditions: for pIC50: > means inhibition at indicated concentration not more than 50%, < and << not less than 50%, read-out: PDGF (E) IC50
T2 construct: host or cells: G-292 human osteosarcoma cells
Summary of the method: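 Phosphorylated PDGF-Ra was measured colorimetrically (450 nm) after tyrosine-phosphorylated proteins from G-292 lysates were bound to PY-20-coated wells and detected with anti-PDGF-Ra antibody. Compound preincubation lasted 1 hr, followed by 50 ng/ml PDGF-AA for 5 min.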

T2 sequence (P16234 24-1089): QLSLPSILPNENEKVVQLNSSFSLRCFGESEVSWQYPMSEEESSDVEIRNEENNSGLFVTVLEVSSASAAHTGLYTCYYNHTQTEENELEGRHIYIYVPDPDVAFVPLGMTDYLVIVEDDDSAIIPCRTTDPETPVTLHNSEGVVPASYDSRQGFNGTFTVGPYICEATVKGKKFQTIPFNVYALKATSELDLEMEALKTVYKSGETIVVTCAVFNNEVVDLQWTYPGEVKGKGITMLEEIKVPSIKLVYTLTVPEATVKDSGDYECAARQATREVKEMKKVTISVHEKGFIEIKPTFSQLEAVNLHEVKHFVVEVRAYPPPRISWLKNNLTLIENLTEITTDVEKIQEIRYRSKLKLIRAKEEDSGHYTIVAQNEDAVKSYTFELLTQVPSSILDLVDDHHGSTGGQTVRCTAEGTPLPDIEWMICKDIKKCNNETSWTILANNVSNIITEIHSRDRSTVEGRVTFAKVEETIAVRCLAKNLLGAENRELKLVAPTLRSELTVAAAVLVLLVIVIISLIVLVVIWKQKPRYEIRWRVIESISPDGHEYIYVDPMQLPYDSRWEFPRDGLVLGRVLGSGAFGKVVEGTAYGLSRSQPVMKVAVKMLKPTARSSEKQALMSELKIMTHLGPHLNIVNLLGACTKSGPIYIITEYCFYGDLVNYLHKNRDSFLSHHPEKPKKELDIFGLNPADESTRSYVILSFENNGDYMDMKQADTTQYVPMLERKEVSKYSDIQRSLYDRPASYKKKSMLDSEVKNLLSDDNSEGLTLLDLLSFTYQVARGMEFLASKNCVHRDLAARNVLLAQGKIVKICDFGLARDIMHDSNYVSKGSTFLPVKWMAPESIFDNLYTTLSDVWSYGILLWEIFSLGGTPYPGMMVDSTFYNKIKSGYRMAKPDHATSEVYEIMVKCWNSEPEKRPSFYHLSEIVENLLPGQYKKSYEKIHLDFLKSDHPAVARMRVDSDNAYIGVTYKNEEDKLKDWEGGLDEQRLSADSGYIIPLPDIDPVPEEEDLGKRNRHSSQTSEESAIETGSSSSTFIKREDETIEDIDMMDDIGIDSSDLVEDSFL
T1 sequence (P10721 26-976): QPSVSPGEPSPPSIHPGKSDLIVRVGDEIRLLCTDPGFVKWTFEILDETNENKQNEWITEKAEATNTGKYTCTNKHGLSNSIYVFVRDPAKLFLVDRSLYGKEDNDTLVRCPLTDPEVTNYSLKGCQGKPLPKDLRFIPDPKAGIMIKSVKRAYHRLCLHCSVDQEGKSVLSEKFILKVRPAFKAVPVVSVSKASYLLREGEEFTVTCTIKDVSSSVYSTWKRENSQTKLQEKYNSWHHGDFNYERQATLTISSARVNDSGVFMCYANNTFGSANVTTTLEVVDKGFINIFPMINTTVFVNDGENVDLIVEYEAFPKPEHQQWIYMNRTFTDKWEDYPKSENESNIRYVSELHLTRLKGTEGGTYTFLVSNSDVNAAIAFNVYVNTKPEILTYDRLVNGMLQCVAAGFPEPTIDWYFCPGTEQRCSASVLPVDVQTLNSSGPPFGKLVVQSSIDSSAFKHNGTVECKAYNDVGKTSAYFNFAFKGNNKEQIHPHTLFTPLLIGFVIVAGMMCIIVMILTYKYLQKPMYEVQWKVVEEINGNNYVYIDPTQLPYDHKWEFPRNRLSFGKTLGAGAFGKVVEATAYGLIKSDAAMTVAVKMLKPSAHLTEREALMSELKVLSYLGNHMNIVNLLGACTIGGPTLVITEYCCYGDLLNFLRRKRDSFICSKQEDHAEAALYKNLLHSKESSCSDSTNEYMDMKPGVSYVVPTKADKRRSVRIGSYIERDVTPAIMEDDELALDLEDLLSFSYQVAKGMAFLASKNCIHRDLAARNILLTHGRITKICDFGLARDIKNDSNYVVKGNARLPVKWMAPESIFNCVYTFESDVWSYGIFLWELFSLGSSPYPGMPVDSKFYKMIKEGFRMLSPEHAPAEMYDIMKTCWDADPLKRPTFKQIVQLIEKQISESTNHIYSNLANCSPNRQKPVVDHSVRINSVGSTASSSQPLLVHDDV

| pIC50 (c-kit; h-SCF 50 ng/ml) | pIC50 (PDGF-Ra; Pharmacological Test Example 1) | pIC50 (PDGF-Ra) | Compound | further results |
| --- | --- | --- | --- | --- |
| 6.76 | > 8.00 |  | 1-(3-Chlorophenyl)ethyl N-{4-((6,7-dimethoxy-4-quinazolinyl)oxy)phenyl}carbamate [Example 3] |  |
|  |  | > 8.00 | 3-Morpholinopropyl N-{4-[(6,7-dimethoxy-4-quinolyl)oxy]-2,5-dimethylphenyl}carbamate [Example 423] | pIC50 (c-kit; 50 ng/ml h-SCF): 6.99 |
| 7.10 | 7.24 |  | 3-[(4-Methylphenyl)sulfanyl]ethyl N-{4-[(6,7-dimethoxy-4-quinolyl)oxy]-2,5-dimethylphenyl}carbamate [Example 139] |  |
| 6.15 | 7.04 |  | 4-(Dimethylamino)butyl N-{4-[(6,7-dimethoxy-4-quinazolinyl)oxy]phenyl}carbamate [Example 194] |  |
| 7.28 | > 8.00 |  | COc1cc2ncnc(Oc3ccc(NC(=O)OCc4ccc(C)cc4)cc3)c2cc1OC [Example 1, 4-Methylbenzyl N-{4-[(6,7-dimethoxy-4-quinazolinyl)oxy]phenyl}carbamate] |  |
| 6.37 | 7.77 |  | COc1cc2ncnc(Oc3ccc(NC(=O)OCc4ccc(C)cc4)c(Cl)c3)c2cc1OC [Example 2, 4-Methylbenzyl N-{2-chloro-4-[(6,7-dimethoxy-4-quinazolinyl)oxy]phenyl}carbamate] |  |
| 6.88 | > 8.00 |  | COc1cc2nccc(Oc3ccc(NC(=O)OC(C)c4cccc(Cl)c4)c(C)c3C)c2cc1OC (stereo not shown) [Example 4, 1-(3-Chlorophenyl)ethyl N-{4-[(6,7-dimethoxy-4-quinolyl)oxy]-2,3-dimethylphenyl}carbamate] |  |
| 6.47 | 7.62 |  | COc1cc2nccc(Oc3cc(C)c(NC(=O)OC(C)c4cccc(Cl)c4)cc3C)c2cc1OC (stereo not shown) [Example 5, 1-(3-Chlorophenyl)ethyl N-{4-[(6,7-dimethoxy-4-quinolyl)oxy]-2,5-dimethylphenyl}carbamate] |  |
| 6.76 | > 8.00 |  | COc1cc2ncnc(Oc3ccc(NC(=O)OC(C)c4cccc(Cl)c4)cc3)c2cc1OC (stereo not shown) [Example 6, 1-(3-Chlorophenyl)ethyl N-{4-[(6,7-dimethoxy-4-quinazolinyl)oxy]phenyl}carbamate] |  |
| 6.21 | 7.92 |  | COc1cc2ncnc(Oc3ccc(NC(=O)OC(C)c4cccc(Cl)c4)c(Cl)c3)c2cc1OC (stereo not shown) [Example 7] |  |
| 7.21 | > 8.00 |  | COc1cc2nccc(Oc3ccc(NC(=O)OCc4ccc(F)cc4)cc3)c2cc1OC [Example 8, 4-Fluorobenzyl N-{4-[(6,7-dimethoxy-4-quinolyl)oxy]phenyl}carbamate] |  |
| 7.35 | > 8.00 |  | COc1cc2nccc(Oc3ccc(NC(=O)OCc4ccc(F)cc4)c(C)c3C)c2cc1OC [Example 9, 4-Fluorobenzyl N-{4-[(6,7-dimethoxy-4-quinolyl)oxy]-2,3-dimethylphenyl}carbamate] |  |
| 6.97 | 7.96 |  | COc1cc2nccc(Oc3cc(C)c(NC(=O)OCc4ccc(F)cc4)cc3C)c2cc1OC [Example 10, 4-Fluorobenzyl N-{4-[(6,7-dimethoxy-4-quinolyl)oxy]-2,5-dimethylphenyl}carbamate] |  |
| 7.44 | > 8.00 |  | COc1cc2ncnc(Oc3ccc(NC(=O)OCc4ccc(F)cc4)cc3)c2cc1OC [Example 11, 4-Fluorobenzyl N-{4-[(6,7-dimethoxy-4-quinazolinyl)oxy]phenyl}carbamate] |  |
| 6.41 | 7.96 |  | COc1cc2ncnc(Oc3ccc(NC(=O)OCc4ccc(F)cc4)c(Cl)c3)c2cc1OC [Example 12, 4-Fuorobenzyl N-{2-chloro-4-[(6,7-dimethoxy-4-quinazolinyl)oxy]phenyl}carbamate] |  |
| 6.87 | > 8.00 |  | COc1cc2nccc(Oc3ccc(NC(=O)OC(C)c4ccccc4Cl)cc3)c2cc1OC (stereo not shown) [Example 13, 1-(2-Chlorophenyl)ethyl N-{4-[(6,7-dimethoxy-4-quinolyl)oxy]phenyl}carbamate] |  |
| 6.68 | 7.92 |  | COc1cc2nccc(Oc3ccc(NC(=O)OC(C)c4ccccc4Cl)c(C)c3C)c2cc1OC (stereo not shown) [Example 14, 1-(2-Chlorophenyl)ethyl N-{4-[(6,7-dimethoxy-4-quinolyl)oxy]-2,3-dimethylphenyl}carbamate] |  |
|  | 7.68 |  | COc1cc2ncnc(Oc3ccc(NC(=O)OC(C)c4ccccc4Cl)cc3)c2cc1OC (stereo not shown) [Example 15, 1-(2-Chlorophenyl)ethyl N-{4-[(6,7-dimethoxy-4-quinazolinyl)oxy]phenyl}carbamate] | inhibition at 1 µM (c-kit; Mo7e, figure in parentheses in −( ), at 1000 nM): 48% |
| 6.31 | > 8.00 |  | COc1cc2ncnc(Oc3ccc(NC(=O)OC(C)c4ccccc4Cl)c(Cl)c3)c2cc1OC (stereo not shown) [Example 16, 1-(2-Chlorophenyl)ethyl N-{2-chloro-4-[(6,7-dimethoxy-4-quinazolinyl)oxy]phenyl}carbamate] |  |
|  |  | 7.77 | CCOC(=O)CCCC(=O)NC(=S)Nc1ccc(Oc2ncnc3cc(OC)c(OC)cc23)cc1 [Example 1177, Ethyl 5-[({4-[(6,7-dimethoxy-4-quinazolinyl)oxy]anilino}carbothioyl)amino]-5-oxopentanoate] |  |
|  |  | 7.11 | CCOC(=O)CCC(=O)NC(=S)Nc1ccc(Oc2ncnc3cc(OC)c(OC)cc23)cc1 [Example 1178, Ethyl 4-[({4-[(6,7-dimethoxy-4-quinazolinyl)oxy]anilino}carbothioyl)amino]-4-oxobutanoate] |  |
|  |  | 7.26 | COc1cc2nccc(Oc3ccc(NC(=S)NC(=O)CCc4cccc(C)c4)cc3Cl)c2cc1OC [Example 1184, N-{3-Chloro-4-[(6,7-dimethoxy-4quinolyl)oxy]phenyl}-N′-[3-(3-methylphenyl)propanoyl]thiourea] |  |
|  |  | 7.62 | COc1cc2nccc(Oc3ccc(NC(=S)NC(=O)C(C)(C)C)cc3Cl)c2cc1OC [Example 1187, N-{3-Chloro-4-[(6,7-dimethoxy-4-quinolyl)oxy]phenyl}-N′-(2,2-dimethylpropanoyl)thiourea] |  |
|  |  | 7.12 | COc1cc2ncnc(Oc3ccc(NC(=S)NC(=O)C(C)(C)C)cc3)c2cc1OC [Example 1188, N-{4-[(6,7-Dimethoxy-4-quinazolinyl)oxy]phenyl}-N′-(2,2-dimethylpropanoyl)thiourea] |  |
|  |  | 7.25 | COc1cc2nccc(Oc3ccc(NC(=S)NC(=O)C4(c5ccccc5)CC4)cc3Cl)c2cc1OC [Example 1194, N-{3-Chloro-4-[(6,7-dimethoxy-4-quinolyl)oxy]phenyl}-N′-[(1-phenylcyclopropyl)carbonyl]thiourea] |  |
|  |  | 7.38 | COc1cc2ncnc(Oc3ccc(NC(=S)NC(=O)CCCl)cc3)c2cc1OC [Example 1199, N-(3-Chloropropanoyl)-N′-{4-[(6,7-dimethoxy-4-quinazolinyl)oxy]phenyl}thiourea] |  |
|  |  | > 8.00 | COc1ccc(C(=O)NC(=S)Nc2ccc(Oc3ncnc4cc(OC)c(OC)cc34)cc2)cc1OC [Example 1203, N-(3,4-Dimethoxybenzoyl)-N′-{4-[(6,7-dimethoxy-4-quinazolinyl)oxy]phenyl}thiourea] |  |

| Compound | pIC50 (c-kit; h-SCF 50 ng/ml) | pIC50 (PDGF-Ra; Pharmacological Test Example 1) | pIC50 (PDGF-Ra) | further results |
| --- | --- | --- | --- | --- |
| N-{4-[(6,7-Dimethoxy-4-quinazolinyl)oxy]phenyl}-N-ethyl-N′-(4-phenylbutanoyl)thiourea [Example 1140] |  |  | < 7.00 | PDGF (E) inhibition (%) at 100 nM (PDGF-Ra; figure in parentheses in >100( ), at 100 nM): 22% |
| N-{4-[(6,7-Dimethoxy-4-quinolyl)oxy]-2,5-dimethylphenyl}-N′-(N-cyclohexylamino)thiourea [Example 523] |  |  | < 7.00 |  |
